Legend:
Assay type in all cases: cell-based
hBGT1 [1] = target: T1, hBGT1 (Homo sapiens, UniProt P48065); test: Oocyte uptake assay with BGT1 cRNA-injected Xenopus oocytes; design: expressed in transfected cells; host or cells: Xenopus oocytes injected with in vitro transcribed BGT1 cRNA; conditions: oocytes expressing BGT1 protein
T1 sequence (P48065 1-614): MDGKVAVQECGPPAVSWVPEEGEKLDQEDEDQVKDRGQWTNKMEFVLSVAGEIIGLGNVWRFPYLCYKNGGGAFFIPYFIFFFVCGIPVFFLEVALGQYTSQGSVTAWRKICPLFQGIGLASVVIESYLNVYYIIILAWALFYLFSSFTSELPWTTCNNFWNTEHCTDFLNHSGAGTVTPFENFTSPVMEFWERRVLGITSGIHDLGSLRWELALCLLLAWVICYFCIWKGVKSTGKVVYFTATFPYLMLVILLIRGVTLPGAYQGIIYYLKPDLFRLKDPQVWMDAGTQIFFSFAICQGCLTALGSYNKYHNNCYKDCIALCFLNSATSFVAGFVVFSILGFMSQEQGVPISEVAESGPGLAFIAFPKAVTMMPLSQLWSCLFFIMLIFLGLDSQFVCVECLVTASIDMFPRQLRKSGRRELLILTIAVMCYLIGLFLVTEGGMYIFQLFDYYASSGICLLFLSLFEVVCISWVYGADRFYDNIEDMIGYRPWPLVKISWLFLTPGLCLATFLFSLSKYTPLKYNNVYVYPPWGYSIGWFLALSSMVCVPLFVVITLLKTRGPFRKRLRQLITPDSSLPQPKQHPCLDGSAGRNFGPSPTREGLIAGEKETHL
Method: For expression in Xenopus oocytes, in vitro BGT1 cRNA is prepared and injected into defoliculated oocytes.
To measure directly the uptake of possible substrates, an oocyte uptake assay is performed in which uptake of compounds is measured by mass spectroscopy. […] Oocytes injected with BGT1 cRNA are incubated at 16-18° C. until maximal transporter expression is reached. Oocytes from the same batch, not injected with cRNA, can be used as a control. […] Subpools are homogenized in 150 μl of ice cold 80% MeOH/H2O and lysed manually.

hBGT1 [2] = target: T1, hBGT1; test: hBGT1 direct uptake assay (LC-MS-MS); design: expressed in transfected cells; host or cells: HEK-TREx cells (HEK-TREx-BGT1 inducible line), induced with tetracycline/doxycycline and butyrate; conditions: HEK-TREx-hBGT1 cells induced to express hBGT1
Method: Four concentrations (bracketing the affinity as measured by competition assays) per compound were routinely tested. Non-specific uptake was determined by measuring the uptake into cells not induced to express the transporter (“no tet”).
Typically, four concentrations bracketing the IC50 were tested. […] The samples were robustly vortexed and centrifuged for 10 minutes at 13,200 rpm to spin down any precipitate. […] Three additional 2-fold dilutions were made in the subsequent rows (B-D or […]) in HBSS.
An internal standard of 50 μM propranolol in 50:50 ethanol:water was also prepared.
The cells were washed twice in room temperature HBSS (100 μl/well/wash) using a 96-well plate washer (Bio Tek ELX405). Alternatively, cells were washed manually with equivalent volumes using a multichannel pipettor. Immediately before the assay was begun, the final 100 μl wash solution was removed from the cells.
After the final wash, as much of the wash buffer as possible was removed by aspirating the wells with a probe that reached the bottom of the wells. (Residual salts from the wash buffer can adversely affect the LC-MS-MS by disrupting the LC method or by suppressing the MS signal.) 150 μl of a 50:50 ethanol:water solution was added to each well to lyse the cells and extract the test compound. The plate was covered and allowed to sit for 20 minutes at room temperature to ensure cell lysis. […]

hBGT1 [3] = target: T1, hBGT1; test: hBGT1 competition uptake assay (inhibition of 3H-GABA uptake); design: expressed in transfected cells; host or cells: HEK-TREx cells (HEK-TREx-BGT1 inducible line), induced with tetracycline/doxycycline and butyrate; conditions: HEK-TREx-BGT1 cells induced to express BGT1; FIG. 2
Method: Alternatively, cells were washed manually with equivalent volumes using a multichannel pipettor.
Non-specific uptake was determined by measuring the uptake into cells not induced to express the transporter (“no tet”).

| SMILES | 3H-GABA uptake versus noninjected controls (hBGT1 [1]) | Direct Uptake Vmax (hBGT1 [2]) [pmol/min/well] | Effect of unlabeled competitor on uptake of labeled GABA (hBGT1 [3]) |
| --- | --- | --- | --- |
| NCCCC(=O)O [^3H-GABA] | higher levels of ^3H-GABA uptake than noninjected controls |  |  |
| NCCCC(=O)O [GABA, γ-aminobutyric acid] |  | 110 | the uptake of labeled GABA decreased as the concentration of unlabeled GABA increased |

Source: US7704695B2, “Screening of compounds for BGT1 transporter activity” (XenoPort, Inc., priority 2005, dated 2010)
